Measurements published in ChEMBL document CHEMBL1201862, “PubChem BioAssay data set” (2004).
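Protocol summary: plate cells (96-well), add compound at 5 concentrations, incubate 48 h, interpolate endpoints linearly. GI50 marks 50% less growth.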 Activity calls are given as the source filed them. No stated cut-off is given here; in the data, active = GI50 up to about 1.1 µM and inactive = higher.

What was measured:
Assay in all cases: NCI-60 cell line screen, 48 h
SNB-75 = system: SNB-75
DMS-273 = system: DMS-273
MOLT-4 = system: MOLT-4
SNB-19 = system: SNB-19
NCI-H226 = system: NCI-H226
OVCAR-5 = system: OVCAR-5
ACHN = system: ACHN
A549 = system: A549
SF-268 = system: SF-268
EKVX = system: EKVX
NCI-H23 = system: NCI-H23
U-251 = system: U-251
HT-29 = system: HT-29
COLO 205 = system: COLO 205
MDA-MB-231 = system: MDA-MB-231
Hs-578T = system: Hs-578T
PC-3 = system: PC-3
MCF7 = system: MCF7
T47D = system: T47D
SR = system: SR

Measured: GI50

c1cnc2c3[nH]cc4[nH]c5ccccc5c4c-3nc2c1
inactive: SNB-75 51.9 µM | DMS-273 72.9 µM | MOLT-4 22.7 µM | SNB-19 > 100 µM | NCI-H226 48.3 µM | OVCAR-5 > 100 µM | ACHN 61.4 µM | A549 > 100 µM | SF-268 84.5 µM | EKVX > 100 µM | NCI-H23 > 100 µM | U-251 75.3 µM | HT-29 29.8 µM | COLO 205 54.7 µM

Cc1[nH]c2ccccc2c1/C=C/c1c(C)[nH]c2ccccc12
inactive: SNB-75 31 µM | DMS-273 > 100 µM | MOLT-4 > 100 µM | NCI-H226 > 100 µM | OVCAR-5 > 100 µM | ACHN > 100 µM | A549 > 100 µM | EKVX > 100 µM | NCI-H23 > 100 µM | U-251 > 100 µM | HT-29 > 100 µM

Clc1cc(OCc2nn3c(Cc4ccccc4)nnc3s2)c(Cl)cc1OCc1nn2c(Cc3ccccc3)nnc2s1
inactive: SNB-75 1.32 µM | MOLT-4 3.77 µM | SNB-19 27.9 µM | NCI-H226 > 100 µM | MDA-MB-231 26.4 µM | Hs-578T 42.4 µM | OVCAR-5 > 100 µM | ACHN 59 µM | A549 94.8 µM | SF-268 43.8 µM | PC-3 78.3 µM | MCF7 > 100 µM | T47D 22.1 µM | EKVX 54.1 µM | NCI-H23 23.9 µM | U-251 31.6 µM | HT-29 76.6 µM | COLO 205 > 100 µM
active: SR 0.541 µM

COc1cccc(NC(=O)CC(=O)NN)c1
inactive: SNB-75 > 100 µM | MOLT-4 > 100 µM | SNB-19 > 100 µM | NCI-H226 > 100 µM | MDA-MB-231 > 100 µM | Hs-578T > 100 µM | OVCAR-5 > 100 µM | ACHN > 100 µM | A549 > 100 µM | SF-268 > 100 µM | PC-3 > 100 µM | MCF7 > 100 µM | T47D > 100 µM | EKVX > 100 µM | SR > 100 µM | NCI-H23 > 100 µM | U-251 > 100 µM | HT-29 > 100 µM | COLO 205 > 100 µM

N#Cc1c(Cl)cc(Cl)n2c1nc1ccccc12
inactive: SNB-75 14 µM | MOLT-4 3.21 µM | SNB-19 22 µM | NCI-H226 13.8 µM | MDA-MB-231 6.49 µM | Hs-578T 11 µM | OVCAR-5 20 µM | ACHN 2.64 µM | A549 17.3 µM | SF-268 14.1 µM | PC-3 14.3 µM | MCF7 4.66 µM | T47D 5.64 µM | EKVX 23.1 µM | SR 5.18 µM | NCI-H23 18.2 µM | U-251 20 µM | HT-29 7.55 µM | COLO 205 3.52 µM

COc1ccc2c(c1)OC[C@@H]1c3cc4c(cc3O[C@H]21)OCO4
inactive: SNB-75 11.6 µM | DMS-273 > 100 µM | MOLT-4 > 100 µM | SNB-19 30.4 µM | NCI-H226 > 100 µM | OVCAR-5 > 100 µM | ACHN > 100 µM | A549 > 100 µM | SF-268 75 µM | EKVX > 100 µM | NCI-H23 > 100 µM | U-251 > 100 µM | HT-29 > 100 µM | COLO 205 > 100 µM

Brc1ccc2[nH]cc([C@@H]3CN[C@@H](c4c[nH]c5ccc(Br)cc45)CN3)c2c1
inactive: SNB-75 2.78 µM | MOLT-4 1.98 µM | SNB-19 11.4 µM | NCI-H226 7.55 µM | MDA-MB-231 3.79 µM | Hs-578T 6.95 µM | OVCAR-5 7.89 µM | ACHN 2.33 µM | A549 6.15 µM | SF-268 10.4 µM | PC-3 3.35 µM | MCF7 3.66 µM | T47D 8.13 µM | EKVX 5.57 µM | SR 1.86 µM | NCI-H23 9.95 µM | U-251 4.39 µM | HT-29 5.71 µM | COLO 205 1.96 µM

C=CC(C)(C)n1cc(C2=C(O)C(=O)C(c3cn(C(C)(C)C=C)c4ccccc34)=C(OC(C)=O)C2=O)c2ccccc21
inactive: NCI-H226 1.36 µM | MDA-MB-231 1.3 µM | OVCAR-5 1.66 µM | ACHN 1.27 µM | T47D 1.68 µM | COLO 205 1.67 µM
active: SNB-75 0.419 µM | MOLT-4 0.475 µM | SNB-19 1.04 µM | Hs-578T 0.646 µM | A549 0.426 µM | SF-268 0.655 µM | PC-3 0.75 µM | MCF7 0.0715 µM | EKVX 1.11 µM | SR 0.298 µM | NCI-H23 0.692 µM | U-251 0.426 µM | HT-29 0.807 µM

O=C(Nc1nnc(S)[nH]1)C(=O)C(C(=O)c1ccc2ccccc2c1)C1OC(=O)c2ccccc21 (stereo not drawn)
inactive: SNB-75 13.8 µM | DMS-273 25.5 µM | MOLT-4 3.78 µM | SNB-19 7.64 µM | NCI-H226 4.85 µM | OVCAR-5 44.3 µM | ACHN > 100 µM | A549 37.5 µM | SF-268 16.6 µM | EKVX 39.7 µM | NCI-H23 17.1 µM | U-251 8.15 µM | HT-29 35 µM | COLO 205 15.9 µM

c1ccc(P(=C2c3ccccc3-c3ccccc32)(c2ccccc2)c2ccccc2)cc1
inactive: SNB-75 28.1 µM | DMS-273 5.04 µM | SNB-19 4.67 µM | OVCAR-5 4.32 µM | ACHN 2.66 µM | A549 7 µM | SF-268 7.19 µM | EKVX 5.58 µM | NCI-H23 2.45 µM | U-251 3.05 µM | HT-29 2.99 µM | COLO 205 3.42 µM

CCOC(=O)C(C)Sc1nnc(COc2ccc(Cl)cc2)n1-c1ccccc1 (stereo not drawn)
inactive: SNB-75 30.6 µM | DMS-273 16.4 µM | SNB-19 19.3 µM | NCI-H226 21.5 µM | OVCAR-5 26.6 µM | ACHN 17.5 µM | A549 43.7 µM | SF-268 18.3 µM | EKVX 24.6 µM | NCI-H23 20.1 µM | U-251 19.5 µM | HT-29 18 µM | COLO 205 18.4 µM

COC(=O)c1ccc(NCc2cc(O)c3ccccc3c2O)cc1
inactive: SNB-75 22.5 µM | MOLT-4 2.81 µM | SNB-19 22.2 µM | NCI-H226 16.4 µM | MDA-MB-231 2.17 µM | Hs-578T 37.7 µM | OVCAR-5 21.6 µM | ACHN 10.8 µM | A549 10.8 µM | SF-268 22.4 µM | PC-3 17.2 µM | MCF7 3.68 µM | T47D 5.12 µM | EKVX 18.3 µM | SR 4.54 µM | NCI-H23 6.65 µM | U-251 16.7 µM | HT-29 18.7 µM | COLO 205 5.06 µM

Cc1[nH]c(-c2ccccc2)c2nc(N(C)C)oc(=O)c12
inactive: SNB-75 > 100 µM | MOLT-4 > 100 µM | SNB-19 > 100 µM | NCI-H226 > 100 µM | MDA-MB-231 > 100 µM | Hs-578T > 100 µM | OVCAR-5 > 100 µM | ACHN > 100 µM | A549 > 100 µM | SF-268 > 100 µM | PC-3 > 100 µM | MCF7 > 100 µM | T47D > 100 µM | EKVX > 100 µM | SR > 100 µM | NCI-H23 > 100 µM | U-251 > 100 µM | HT-29 > 100 µM | COLO 205 > 100 µM

O=S1(=O)OCCOS(=O)(=O)C1Cc1cccc2ccccc12
inactive: SNB-75 29.6 µM | MOLT-4 23.7 µM | SNB-19 25 µM | NCI-H226 7.83 µM | MDA-MB-231 23 µM | Hs-578T 29.9 µM | OVCAR-5 24.3 µM | ACHN 31.5 µM | A549 35.2 µM | SF-268 14.5 µM | PC-3 33.2 µM | MCF7 14.4 µM | T47D 39.4 µM | EKVX 30.3 µM | SR 25.2 µM | NCI-H23 29.9 µM | U-251 18.2 µM | HT-29 25.5 µM | COLO 205 13.9 µM

C=C(C)[C@@H]1CC[C@]2(C(=O)O)CC[C@]3(C)[C@H](CC[C@@H]4[C@@]5(C)CC[C@H](O)C(C)(C)[C@@H]5CC[C@]43C)[C@@H]12 [BETULINIC ACID]
inactive: SNB-75 8.87 µM | MOLT-4 4.51 µM | SNB-19 13.7 µM | NCI-H226 13.2 µM | MDA-MB-231 3.91 µM | Hs-578T 10.8 µM | OVCAR-5 12.4 µM | ACHN 8.28 µM | A549 4.88 µM | SF-268 7.6 µM | PC-3 7.48 µM | MCF7 13.7 µM | T47D 7.13 µM | EKVX 16.1 µM | SR 5.53 µM | NCI-H23 2.58 µM | U-251 5.53 µM | HT-29 8.24 µM | COLO 205 4.63 µM

COc1ccc(-c2cc(=O)c3c(O)c(OC)c(OC)c(OC)c3o2)cc1 [GARDENIN B]
inactive: SNB-75 10.2 µM | MOLT-4 > 100 µM | SNB-19 25.4 µM | NCI-H226 > 100 µM | MDA-MB-231 12.6 µM | Hs-578T 26.2 µM | OVCAR-5 98.6 µM | ACHN > 100 µM | A549 10.1 µM | SF-268 > 68.4 µM | PC-3 30 µM | MCF7 4.86 µM | T47D 26.9 µM | EKVX > 100 µM | NCI-H23 > 36.3 µM | U-251 15.5 µM | HT-29 4.17 µM | COLO 205 7.83 µM
active: SR 0.39 µM
